According to patent publication US8633324B2, “Denibulin di-hydrochloride” (Medicinova, Inc., priority 2011, dated 2014):
≈ marks a conversion by molar mass, not a printed value. Where two headings read alike, the source gives them in different places.

Columns and labels:
Assay type in all cases: physicochemical
[1] = Evaluation of other salt forms as active pharmaceutical ingredient; conditions: reasons including instability, hygroscopicity and deliquescence even at moderate humidity
Procedure: The advantageous nature of the physicochemical properties of the di-hydrochloride salt of MN-029 seems to be borne out, not just in comparison with the mono-hydrochloride salt but also with three other salts that were prepared to determine each salt's potential to be an active pharmaceutical ingredient. These other salt forms were the mesylate, malonate and sulfate salts of denibulin. Each was deemed unsuitable for use in pharmaceutical formulations because of one or more reasons, including instability, hygroscopicity and deliquescence even at moderate humidity.

[2] = Log P, Log Pion, Log D by potentiometric titration (Sirius GlpKa, octanol:water); conditions: octanol:ionic-strength adjusted water
From the text: Most drugs have an ideal log P value and any deviation from this idealized value results in reduced absorption, slow transport of drug to the site of action and consequently, a decrease in biological activity. Table 8, illustrates the predicted and measured values for partition coefficients of MN-029 di-hydrochloride. The data was collected by potentiometric titration using a Sirius GlpKa instrument using three ratios of octanol:ionic-strength adjusted water to generate Log P, Log Pion and Log D values and the raw data was analyzed using Refinement Pro Software V.1.0. The predicted value of Log P was obtained using ACD V. software and Syracuse KOWWIN V.1.67 softwares.

[3] = Gravimetric Vapor Sorption (GVS) hygroscopicity; conditions: for Weight change: GVS
From the text: Moreover, neither the mono-hydrochloride salt or the di-hydrochloride salt of MN-029 show any significant change in phase as measured by XRPD analysis of samples subjected to GVS analysis (see FIG. 6).

[4] = Aqueous solubility, 24 hours equilibration in water at 25° C., HPLC, pH and XRPD of residue; conditions: for XRPD of solid residue: residue after 24 hours equilibration in water at 25° C.
Procedure: Briefly, quantitative high performance liquid chromatography (HPLC) was used to determine the aqueous solubility. X-ray powder diffraction spectrometry was also used to characterize the thermodynamic solubility of the mono-hydrochloride and di-hydrochloride salts of MN-029. After a 24 hours equilibration of each salt form in water at 25° C., the residual solid material was separated from the aqueous solution and the pH of the aqueous sample was measured. The XRPD spectrum of the solid residue obtained from the MN-029 di-hydrochloride vial indicated the solid material to be the mono-hydrochloride salt of MN-029. […] Table 4 illustrates the data from aqueous solubility studies of the mono-hydrochloride and di-hydrochloride salts of MN-029.
The suspension was equilibrated at 25° C. for 24 hours then pH was measured. The suspension was filtered and the filtrate was diluted by a factor of 101. Quantization by HPLC with a reference to a standard solution. Different volumes of the standard, diluted, and undiluted solution were injected and solubility was calculated by integration of the peak found at the same time as the principle peak in the standard solution.

[5] = Solubility as a function of pH in buffers without and with 15% HPBCD; conditions: for solubility at 5 days: thermodynamic from solid, read-out: MN-029 Solubility
Procedure: Buffers were prepared to cover a pH range of 2 to 7. Approximately 5 to 10 milligrams of drug was weighed into an HPLC vial to which 1.00 mL of the appropriate buffer was added. The solutions were vortexed briefly and were then shaken for five days on an orbital shaker. The prolonged shaking was carried out because slow equilibration had been observed during the initial formulation studies with different salt forms of MN-029.
Buffers with 15% HPBCD were prepared from the previous buffers. One and a half grams of HPBCD was weighed into each of several 10 mL volumetric flasks. HPBCD was dissolved in and diluted to volume with the appropriate buffer. 15 to 20 milligrams of MN-029 di-hydrochloride was weighed out into an tared HPLC vial. To the di-hydrochloride salt was added 1.00 mL of each buffer and the solution was vortexed briefly to dissolve the salt. The solutions were placed on an orbital shaker for five days. Solubility results are shown in Table 10, and the pH solubility profile for the drug in the absence of HPBCD is shown in FIG. 8.

[6] = pKa, predicted (ACD) versus measured (Sirius GlpKa)
From the text: MN-029 has a primary, secondary and tertiary amino group. The pKa's of these amino groups, therefore, should play a role in aqueous solubility, stability and pharmacokinetics. Accordingly, the present inventor compared the predicted pKa's of the alanyl and ring nitrogen atoms to their measured pKa values and unexpectedly found a significant difference between the measured and predicted pKa values for the benzimidazole nitrogen atoms. Thus, for the acidic >N—H group of imidazole, there is approximately a 6-fold difference between the predicted and measured pKa values as shown in Scheme 3. For the more basic ring nitrogen (—N═), however, the difference between observe red and predicted pKa values is 30-fold. That is, the measured value of basicity for the unprotonated ring nitrogen is much lower than the predicted value.
Predicted pKa values were calculated using ACD pKa prediction software v. 9. Actual pKa values were collected on a Sirius GlpKa instrument with a D-PAS attachment. Measurements were made at 25° C. in aqueous solution by UV and in methanol water mixtures by potentiometry. The ionic-strength of the titration media was adjusted with 0.15 M aqueous KCl. The values found in methanol water mixtures were corrected to 0% co-solvent via a Yashuda-Shedlovsky extrapolation. The data were refined using Refinement Pro software v. 1.0. No difference in pKa between the tautomers of MN-029 di-hydrochloride were detected experimentally or theoretically.

[7] = water, 25° C., equilibration for 24 hours

For malonate, the “suitability for use in pharmaceutical formulations” value [1] was “unsuitable”.
In the case of `COC(=O)Nc1nc2cc(Sc3ccc(NC(=O)[C@H](C)N)cc3)ccc2[nH]1.Cl` [MN-029 mono-hydrochloride, reference compound], the “Measured LogP” value [2] is reported as 2.64, the “Measured LogPion(cation)” value [2] is reported as 0.93 and the “Measured LogD7.4” value ([2]; pH 7.4) is reported as 2.10. For the same molecule, the Weight change ([3]; 0% RH to 40% RH) was “+1.04 % w/w”, the Weight change ([3]; 40% RH to 90% RH, listed as A063866) was “Reversible uptake of +2.12% w/w” and the Weight change ([3]; 40% RH to 90% RH, listed as MN029*HCl) was “+2.12 % w/w”. The Weight change ([3]; 90% RH to 0% RH) was −3.39 % w/w, the “XRPD of residue after GVS” value ([3]; sample subjected to GVS) was “No significant difference” and the “XRPD of solid residue” value ([4]; listed as A063866) was “No significant difference”. The “XRPD of solid residue” value ([4]; listed as MN-029*HCl) was “No significant”, the Concentration of filtrate [4, 7] was 0.63 mg/ml of free base and the “pH of saturated solution” value [4, 7] was 2.37.
In the case of `COC(=O)Nc1nc2ccc(Sc3ccc(NC(=O)[C@H](C)N)cc3)cc2[nH]1` [MN-029, carbamic acid N-[6-[[4-[[(2S)-2-amino-1-oxopropyl]amino]phenyl]thio]-1H-benzimidazol-2-yl]-methyl ester], the “MN-029 Solubility” value ([5]; Without HPBCD, buffer pH 2.0, final pH 2.10, five days shaking) is reported as 6160 µg/mL, the solubility at 5 days ([5]; aqueous buffer with 15% HPBCD, pH 2, aqueous with cosolvent or surfactant or cyclodextrin, With 15% HPBCD, buffer pH 2.0, final pH 2.03) is reported as greater than 20900 µg/mL and the solubility at 5 days ([5]; aqueous buffer with 15% HPBCD, pH 3, aqueous with cosolvent or surfactant or cyclodextrin, With 15% HPBCD, buffer pH 3.0, final pH 3.11) is reported as greater than 24400 µg/mL. For the same molecule, the solubility at 5 days ([5]; aqueous buffer with 15% HPBCD, pH 4, aqueous with cosolvent or surfactant or cyclodextrin, With 15% HPBCD, buffer pH 4.0, final pH 3.98) was greater than 21500 µg/mL, the solubility at 5 days ([5]; aqueous buffer with 15% HPBCD, pH 5, aqueous with cosolvent or surfactant or cyclodextrin, With 15% HPBCD, buffer pH 5.0, final pH 5.24) was greater than 23000 µg/mL and the solubility at 5 days ([5]; aqueous buffer with 15% HPBCD, pH 6, aqueous with cosolvent or surfactant or cyclodextrin, With 15% HPBCD, buffer pH 6.0, final pH 6.27) was greater than 24300 µg/mL. For the same molecule, the solubility at 5 days ([5]; aqueous buffer with 15% HPBCD, pH 7, aqueous with cosolvent or surfactant or cyclodextrin, With 15% HPBCD, buffer pH 7.0, final pH 6.90) was greater than 22700 µg/mL, the solubility at 5 days ([5]; aqueous buffer, pH 3, aqueous buffer, Without HPBCD, buffer pH 3.0, final pH 3.35) was 290 µg/mL (≈ 752 µM) and the solubility at 5 days ([5]; aqueous buffer, pH 4, aqueous buffer, Without HPBCD, buffer pH 4.0, final pH 3.92) was 560 µg/mL (≈ 1450 µM). The solubility at 5 days ([5]; aqueous buffer, pH 5, aqueous buffer, Without HPBCD, buffer pH 5.0, final pH 4.93) was 150 µg/mL (≈ 389 µM), the solubility at 5 days ([5]; aqueous buffer, pH 6, aqueous buffer, Without HPBCD, buffer pH 6.0, final pH 6.24) was 130 µg/mL (≈ 337 µM) and the solubility at 5 days ([5]; aqueous buffer, pH 7, aqueous buffer, Without HPBCD, buffer pH 7.0, final pH 6.96) was 26 µg/mL (≈ 67.5 µM). For the same molecule, the “difference between predicted and measured pKa values” ([6]; acidic >N—H group of imidazole) was roughly 6 fold, the “difference between predicted and measured pKa values” ([6]; alanyl amino group) was “no significant difference” and the “difference between observed and predicted pKa values” ([6]; more basic ring nitrogen (—N═)) was 30 fold.
With `O=S(=O)(O)O` [sulfate] the “suitability for use in pharmaceutical formulations” value [1] was “unsuitable”.
